One data set has as its system Bacillus anthracis. As to the kind of experiment: Antimicrobial activity against Bacillus anthracis Sterne by CLSI method. Type of data set: functional. The settings on record: Bacillus anthracis, Sterne; read-out: MIC.
For the next data set, the system named is Klebsiella pneumoniae. As to the kind of experiment: Antimicrobial activity against Klebsiella pneumoniae 13882 by CLSI method. Type of data set: functional. The following applies: Klebsiella pneumoniae, 13882; read-out: MIC.
A short description of data set [1]: Cytotoxicity against human HeLa cells by MTS assay. The class given is cell-based. The following applies: HeLa cells.
The next data set deals with Enterococcus faecalis. As to the kind of experiment: Antimicrobial activity against vancomycin-resistant Enterococcus faecalis ATCC 51575 by CLSI method. Type of data set: functional. The settings on record: Enterococcus faecalis, ATCC 51575; read-out: MIC.
Data set [2] relates to Escherichia coli. As to the kind of experiment: Antimicrobial activity against TolC-deficient Escherichia coli by CLSI method. Type of data set: functional. The following applies: Escherichia coli; read-out: MIC.
Another data set concerns Bacillus subtilis. As to the kind of experiment: Antimicrobial activity against Bacillus subtilis BD54 by CLSI method. Type of data set: functional. The settings on record: Bacillus subtilis, BD54; read-out: MIC.
The test system of data set [3] is Escherichia coli. As to the kind of experiment: Antimicrobial activity against TolC+ Escherichia coli 700 by CLSI method. The class given is functional. The following applies: Escherichia coli, 700; read-out: MIC.
The subject of data set [4] is Pseudomonas aeruginosa. As to the kind of experiment: Antimicrobial activity against Pseudomonas aeruginosa PAO1 by CLSI method. Type of data set: functional. The settings on record: Pseudomonas aeruginosa, PAO1; read-out: MIC.
The next data set deals with Staphylococcus aureus. As to the kind of experiment: Antimicrobial activity against methicillin-resistant Staphylococcus aureus 1094 by CLSI method. The following applies: Staphylococcus aureus, 1094; read-out: MIC. The class given is functional.
Data set [5] relates to Pseudomonas aeruginosa. As to the kind of experiment: Antimicrobial activity against mexAB-oprM deficient Pseudomonas aeruginosa PAO1 harboring by CLSI method. Type of data set: functional.

As usually defined, the MIC is the lowest concentration found to suppress growth. For orientation: CC50 means the concentration giving 50% cytotoxicity. Read a high CC50 as better tolerance by the cells.

In brackets after ≈: the same amount, converted by molar mass.

On to `c1cc2oc(-c3ccc(-c4cc5ccc(C6=NCCCN6)cc5[nH]4)cc3)cc2cc1C1=NCCCN1`, for which the MIC came out at 0.08 µg/mL (≈ 0.169 µM) with Bacillus anthracis; 1.25 µg/mL (≈ 2.64 µM) in the data set on Klebsiella pneumoniae; 0.08 µg/mL (≈ 0.169 µM) in the data set on Enterococcus faecalis; 0.39 µg/mL (≈ 0.824 µM) in the data set with Escherichia coli [2]; 0.08 µg/mL (≈ 0.169 µM) in the data set with Bacillus subtilis; 0.63 µg/mL (≈ 1.33 µM) in the data set on Escherichia coli [3]. In addition, the MIC in the data set with Pseudomonas aeruginosa [4] was 2.5 µg/mL (≈ 5.28 µM); in the data set on Staphylococcus aureus, 0.31 µg/mL (≈ 0.655 µM); against Pseudomonas aeruginosa [5] it was 2.5 µg/mL (≈ 5.28 µM). In addition, half-maximal cytotoxicity in [1] (CC50) was put at 8.5 µg/mL (≈ 17.9 µM).

For the compound `COC1CN=C(c2ccc3cc(-c4ccc(-c5cc6ccc(C7=NCC(OC)CN7)cc6o5)cc4)[nH]c3c2)NC1` (centres undefined), the MIC was 0.31 µg/mL (≈ 0.581 µM) in the data set on Bacillus anthracis; 1.25 µg/mL (≈ 2.34 µM) in the data set on Klebsiella pneumoniae; 0.63 µg/mL (≈ 1.18 µM) in the data set on Enterococcus faecalis; 0.24 µg/mL (≈ 0.45 µM) in the data set with Escherichia coli [2]; 0.08 µg/mL (≈ 0.15 µM) in the data set with Bacillus subtilis; 2.5 µg/mL (≈ 4.68 µM) in the data set on Escherichia coli [3]. For the same compound, the MIC in the data set on Pseudomonas aeruginosa [4] is over 80 µg/mL; in the data set with Staphylococcus aureus it was 0.31 µg/mL (≈ 0.581 µM). It took 6 µg/mL (≈ 11.2 µM) to reach half-maximal cytotoxicity in data set [1] (CC50).

On to `OC1CN=C(c2ccc3cc(-c4ccc(-c5cc6ccc(C7=NCC(O)CN7)cc6o5)cn4)[nH]c3c2)NC1` (centres undefined), for which the MIC turned out to be 1.09 µg/mL (≈ 2.15 µM) in the data set on Bacillus anthracis; 8.8 µg/mL (≈ 17.4 µM) in the data set with Klebsiella pneumoniae; 5 µg/mL (≈ 9.87 µM) in the data set with Enterococcus faecalis; 0.63 µg/mL (≈ 1.24 µM) in the data set with Escherichia coli [2]; 3.75 µg/mL (≈ 7.4 µM) with Bacillus subtilis; 80 µg/mL (≈ 158 µM) in the data set with Escherichia coli [3]. The MIC in the data set on Pseudomonas aeruginosa [4] worked out at 25 µg/mL (≈ 49.4 µM); in the data set with Staphylococcus aureus, 2.5 µg/mL (≈ 4.94 µM). The compound further yielded a CC50 in [1] of 16.7 µg/mL (≈ 33 µM).

In the case of `c1cc2cc(-c3ccc(-c4cc5ccc(C6=NCCN6)cc5o4)s3)[nH]c2cc1C1=NCCN1`, the MIC in the data set with Bacillus anthracis worked out at 1.09 µg/mL (≈ 2.41 µM); with Klebsiella pneumoniae it was 60 µg/mL (≈ 133 µM); with Enterococcus faecalis, 1.56 µg/mL (≈ 3.45 µM); in the data set on Escherichia coli [2] it was 0.27 µg/mL (≈ 0.598 µM); with Bacillus subtilis it was 0.16 µg/mL (≈ 0.354 µM); with Escherichia coli [3], 2.8 µg/mL (≈ 6.2 µM). In addition, the MIC in the data set with Pseudomonas aeruginosa [4] was 66.7 µg/mL (≈ 148 µM); with Staphylococcus aureus, 0.94 µg/mL (≈ 2.08 µM). In data set [1], the CC50 stood at 182 µg/mL (≈ 403 µM).

For `CC1CN=C(c2ccc3cc(-c4ccc(-c5cc6ccc(C7=NCC(C)CN7)cc6o5)cn4)[nH]c3c2)NC1` (centres undefined), the MIC in the data set with Bacillus anthracis stood at 0.63 µg/mL (≈ 1.25 µM); in the data set on Klebsiella pneumoniae it was 2.5 µg/mL (≈ 4.97 µM); in the data set with Enterococcus faecalis, 0.63 µg/mL (≈ 1.25 µM); with Escherichia coli [2], 0.27 µg/mL (≈ 0.537 µM); in the data set on Bacillus subtilis, 0.08 µg/mL (≈ 0.159 µM); with Escherichia coli [3], 1.88 µg/mL (≈ 3.74 µM). The MIC came out at 5 µg/mL (≈ 9.95 µM) with Pseudomonas aeruginosa [4] and 0.31 µg/mL (≈ 0.617 µM) in the data set on Staphylococcus aureus. Moreover, in data set [1], the CC50 was 2.2 µg/mL (≈ 4.38 µM).

On to `FC1CN=C(c2ccc3cc(-c4ccc(-c5cc6ccc(C7=NCC(F)CN7)cc6o5)s4)[nH]c3c2)NC1` (centres undefined), for which the minimum inhibitory concentration (MIC) in the data set with Bacillus anthracis is 0.31 µg/mL (≈ 0.601 µM); in the data set on Klebsiella pneumoniae, 2.5 µg/mL (≈ 4.85 µM); with Enterococcus faecalis, 0.63 µg/mL (≈ 1.22 µM); with Escherichia coli [2], 0.31 µg/mL (≈ 0.601 µM); with Bacillus subtilis, 0.16 µg/mL (≈ 0.31 µM); in the data set with Escherichia coli [3], 1.25 µg/mL (≈ 2.42 µM). The MIC is 53.3 µg/mL (≈ 103 µM) in the data set on Pseudomonas aeruginosa [4] and 0.63 µg/mL (≈ 1.22 µM) in the data set on Staphylococcus aureus. The compound also showed a CC50 in data set [1] of 22.5 µg/mL (≈ 43.6 µM).

In the case of `CC1CNC(c2ccc3cc(-c4ccc(-c5ccc(N(C)C)cc5)cc4)[nH]c3c2)=N1` (centres undefined), the MIC with Bacillus anthracis is 2.1 µg/mL (≈ 5.32 µM); in the data set on Klebsiella pneumoniae, over 80 µg/mL; in the data set on Enterococcus faecalis it was 3.3 µg/mL (≈ 8.36 µM); in the data set on Escherichia coli [2], over 80 µg/mL; in the data set on Bacillus subtilis, 0.63 µg/mL (≈ 1.6 µM); in the data set with Escherichia coli [3] it was over 80 µg/mL. Moreover, the figures for the MIC in the data set on Pseudomonas aeruginosa [4] and in the data set on Staphylococcus aureus were over 80 µg/mL and 1.04 µg/mL (≈ 2.64 µM), respectively. In data set [1], this compound had a CC50 of at most 0.63 µg/mL.

`c1cc2cc(-c3ccc(-c4cn5cc(C6=NCCN6)ccc5n4)cc3)[nH]c2cc1C1=NCCN1`: the MIC amounted to 40 µg/mL (≈ 89.8 µM) with Bacillus anthracis; 80 µg/mL (≈ 180 µM) in the data set on Klebsiella pneumoniae; 20 µg/mL (≈ 44.9 µM) in the data set with Enterococcus faecalis; 0.63 µg/mL (≈ 1.41 µM) with Escherichia coli [2]; 0.31 µg/mL (≈ 0.696 µM) with Bacillus subtilis; 40 µg/mL (≈ 89.8 µM) in the data set on Escherichia coli [3]. Besides, the MIC with Pseudomonas aeruginosa [4] was over 80 µg/mL; in the data set with Staphylococcus aureus, 80 µg/mL (≈ 180 µM).

Consider `CC1CNC(c2ccc3cc(-c4ccc(-c5cc6ccc(C7=NC(C)CN7)cc6o5)s4)[nH]c3c2)=N1` (centres undefined), for which the MIC with Bacillus anthracis was 0.52 µg/mL (≈ 1.08 µM); in the data set with Klebsiella pneumoniae, 20 µg/mL (≈ 41.7 µM); in the data set on Enterococcus faecalis, 0.63 µg/mL (≈ 1.31 µM); with Escherichia coli [2], 0.63 µg/mL (≈ 1.31 µM); in the data set on Bacillus subtilis, 0.31 µg/mL (≈ 0.646 µM); in the data set with Escherichia coli [3] it was 1.25 µg/mL (≈ 2.61 µM). Also, the MIC came to 26.7 µg/mL (≈ 55.7 µM) in the data set with Pseudomonas aeruginosa [4] and 1.04 µg/mL (≈ 2.17 µM) in the data set on Staphylococcus aureus. The compound further came in with a CC50 in data set [1] of 14.5 µg/mL (≈ 30.2 µM).

Take `c1cc2cc(-c3ccc(-c4cnc(N5CCOCC5)nc4)cc3)[nH]c2cc1C1=NCCCN1`: the MIC was found to be 0.55 µg/mL (≈ 1.25 µM) in the data set with Bacillus anthracis; 70 µg/mL (≈ 160 µM) in the data set on Klebsiella pneumoniae; 3.75 µg/mL (≈ 8.55 µM) with Enterococcus faecalis; 0.63 µg/mL (≈ 1.44 µM) with Escherichia coli [2]; 0.78 µg/mL (≈ 1.78 µM) in the data set with Bacillus subtilis; 35 µg/mL (≈ 79.8 µM) in the data set with Escherichia coli [3]. For the same compound, the MIC was over 80 µg/mL in the data set with Pseudomonas aeruginosa [4] and 7.5 µg/mL (≈ 17.1 µM) in the data set with Staphylococcus aureus. The CC50 in [1] is 2 µg/mL (≈ 4.56 µM).

For `CN(C)c1ccc(-c2ccc(-c3cc4ccc(C5=NCCCN5)cc4[nH]3)cc2)cc1`, the MIC was 0.47 µg/mL (≈ 1.19 µM) in the data set on Bacillus anthracis; over 80 µg/mL in the data set on Klebsiella pneumoniae; 3.1 µg/mL (≈ 7.86 µM) in the data set on Enterococcus faecalis; over 80 µg/mL with Escherichia coli [2]; 0.63 µg/mL (≈ 1.6 µM) with Bacillus subtilis; over 80 µg/mL with Escherichia coli [3]. Also, the MIC in the data set on Pseudomonas aeruginosa [4] is over 80 µg/mL; in the data set with Staphylococcus aureus, 1.09 µg/mL (≈ 2.76 µM). For the same compound, in data set [1], the half-maximal cytotoxic concentration (CC50) is at most 0.63 µg/mL.

The values are drawn from ChEMBL document CHEMBL3352668, “Synthesis and antibacterial evaluation of new, unsymmetrical triaryl bisamidine compounds” (Bioorg Med Chem Lett, 2014).
